The target in data set [1] is T1, thioredoxin reductase 1 (TXNRD1) (Rattus norvegicus, UniProt O89049).
T1 construct: recombinant rat TXNRD1, wild-type
T1 sequence (O89049 1-499): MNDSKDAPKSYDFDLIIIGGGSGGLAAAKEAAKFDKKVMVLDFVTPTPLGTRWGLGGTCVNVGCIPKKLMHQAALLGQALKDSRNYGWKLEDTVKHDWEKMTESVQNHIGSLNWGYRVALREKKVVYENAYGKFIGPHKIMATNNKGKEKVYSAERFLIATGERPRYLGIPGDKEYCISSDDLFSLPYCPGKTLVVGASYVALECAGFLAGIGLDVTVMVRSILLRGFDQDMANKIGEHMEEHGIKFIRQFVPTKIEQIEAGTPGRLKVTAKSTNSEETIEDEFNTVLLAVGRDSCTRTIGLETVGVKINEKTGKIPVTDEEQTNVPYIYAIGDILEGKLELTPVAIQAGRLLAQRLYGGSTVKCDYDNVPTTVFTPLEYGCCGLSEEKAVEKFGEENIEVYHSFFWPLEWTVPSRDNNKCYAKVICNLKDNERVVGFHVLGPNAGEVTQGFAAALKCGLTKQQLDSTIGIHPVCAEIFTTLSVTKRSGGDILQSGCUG
The data set is described as follows: DTNB reduction assay after […] h incubation; desalting shows irreversibility. The format is biochemical.

Data set [2] concerns the target T1, thioredoxin reductase 1 (TXNRD1). Description: NADPH oxidation at […] nm with […] TXNRD1. It is filed as biochemical.

Results on three molecules are retold here after article PMC10574601, “Benzophenanthridine Alkaloid Chelerythrine Elicits Necroptosis of Gastric Cancer Cells via Selective Conjugation at the Redox Hyperreactive C-Terminal Sec^498 Residue of Cytosolic Selenoprotein Thioredoxin Reductase” (Molecules, 2023).

As usually defined, the IC50 is the concentration that gives 50% inhibition. Consider `COc1ccc2c(c[n+](C)c3c4cc5c(cc4ccc23)OCO5)c1OC` [Che, chelerythrine], for which, in data set [1], the 50% inhibitory concentration (IC50) is 65.9 µM.

As for `C[n+]1cc2c3c(ccc2c2ccc4cc5c(cc4c21)OCO5)OCO3` [San, sanguinarine], the IC50 in data set [1] came to 46.7 µM.

Regarding `O=C1C=CC(=O)c2c(O)cccc21` [juglone, 5-Hydroxy-1,4-naphthoquinone], the “NADPH oxidation at 340 nm with 30 nM TXNRD1” value in data set [2] is given as “juglone, a substrate of TXNRD1, exhibited strong NADPH oxidation”.
